Source: PubChem BioAssay AID248 (DTP/NCI, 2004)
Several values for one entry are separate records, joined by “and”; a condition that tells them apart may be missing. Equal entries are not always repeated. Inconclusive results and toxic doses are left out. Cut-off read from the data, not from the text of the source: active = T/C of 150% or more; inactive = T/C below 125%.

System: L1210 leukemia ip in BDF1 mice, survival T/C
Experiment: NCI In Vivo Anticancer Drug Screen. Data for tumor model L1210 Leukemia (intraperitoneal) in B6D2F1 (BDF1) mice
Settings: endpoint: mean survival time, higher = longer survival
Method in brief: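 Tumor was transplanted into mice, which were then dosed with test compound or vehicle alone. Survival was recorded for each group, and the treated figure was expressed relative to the control figure.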

[1] = dose: 100.0 mg/kg/injection, schedule: Q04DX003 (ip), vehicle: saline
[2] = dose: 200.0 mg/kg/injection, schedule: Q04DX003 (ip), vehicle: saline
[3] = dose: 400.0 mg/kg/injection, schedule: Q04DX003 (ip), vehicle: saline
[4] = dose: 100.0 mg/kg/injection, schedule: Q04DX003 (ip), vehicle: Klucel (hydroxypropylcellulose) (HPC)
[5] = dose: 200.0 mg/kg/injection, schedule: Q04DX003 (ip), vehicle: Klucel (hydroxypropylcellulose) (HPC)
[6] = dose: 10.0 mg/kg/injection, schedule: Q01DX009 (ip), vehicle: Klucel (hydroxypropylcellulose) (HPC)
[7] = dose: 100.0 mg/kg/injection, schedule: Q01DX009 (ip), vehicle: Klucel (hydroxypropylcellulose) (HPC)
[8] = dose: 200.0 mg/kg/injection, schedule: Q01DX009 (ip), vehicle: Klucel (hydroxypropylcellulose) (HPC)
[9] = dose: 400.0 mg/kg/injection, schedule: Q01DX009 (ip), vehicle: Klucel (hydroxypropylcellulose) (HPC)
[10] = dose: 50.0 mg/kg/injection, schedule: Q01DX009 (ip), vehicle: saline with Tween-80
[11] = dose: 100.0 mg/kg/injection, schedule: Q01DX009 (ip), vehicle: saline with Tween-80
[12] = dose: 200.0 mg/kg/injection, schedule: Q01DX009 (ip), vehicle: saline with Tween-80

Measured: T/C

CN1CCNC(=O)CC1
inactive: dose: 25.0 mg/kg/injection, schedule: Q01DX009 (ip), vehicle: water 106 % of control | dose: 50.0 mg/kg/injection, schedule: Q01DX009 (ip), vehicle: water 102 % of control | dose: 100.0 mg/kg/injection, schedule: Q01DX009 (ip), vehicle: water 98 % of control | dose: 200.0 mg/kg/injection, schedule: Q01DX009 (ip), vehicle: water 114 % of control

CCOC(=O)c1c(N)ssc1=S
inactive: dose: 100.0 mg/kg/injection, schedule: Q01DX009 (ip), vehicle: saline 100 % of control | [1] 102 % of control | dose: 200.0 mg/kg/injection, schedule: Q01DX009 (ip), vehicle: saline 105 % of control | [2] 105 % of control | dose: 400.0 mg/kg/injection, schedule: Q01DX009 (ip), vehicle: saline 105 % of control | [3] 107 % of control

c1ccc([Si](O[O][Ge]([c]2ccccc2)([c]2ccccc2)[c]2ccccc2)(c2ccccc2)c2ccccc2)cc1
inactive: [4] 93 % of control | [5] 86 % of control | dose: 400.0 mg/kg/injection, schedule: Q04DX003 (ip), vehicle: Klucel (hydroxypropylcellulose) (HPC) 89 % of control

Nc1nc(N)c(N=Nc2ccc(S(=O)(=O)Nc3ncccn3)cc2)cc1N=Nc1ccccc1
inactive: dose: 100.0 mg/kg/injection, schedule: Q01DX001 (ip), vehicle: carboxymethylcellulose (CMC) 101 % of control | dose: 200.0 mg/kg/injection, schedule: Q01DX001 (ip), vehicle: carboxymethylcellulose (CMC) 95 % of control | dose: 400.0 mg/kg/injection, schedule: Q01DX001 (ip), vehicle: carboxymethylcellulose (CMC) 103 % of control

c1ccc(C(c2ccccc2)[P+](c2ccccc2)(c2ccccc2)c2ccccc2)cc1
inactive: dose: 0.75 mg/kg/injection, schedule: Q01DX005 (ip), vehicle: gum acacia 106 % of control and 110 % of control | dose: 1.5 mg/kg/injection, schedule: Q01DX005 (ip), vehicle: gum acacia 106 % of control | dose: 1.5 mg/kg/injection, schedule: Q01DX009 (ip), vehicle: gum acacia 111 % of control | dose: 3.0 mg/kg/injection, schedule: Q01DX009 (ip), vehicle: gum acacia 111 % of control | dose: 3.12 mg/kg/injection, schedule: Q04DX002 (ip), vehicle: gum acacia 100 % of control | dose: 6.25 mg/kg/injection, schedule: Q01DX005 (ip), vehicle: gum acacia 95 % of control | dose: 6.25 mg/kg/injection, schedule: Q04DX002 (ip), vehicle: gum acacia 95 % of control | dose: 12.5 mg/kg/injection, schedule: Q04DX002 (ip), vehicle: gum acacia 111 % of control and 92 % of control

CCCCCCCCCCC(=O)N1CCCCCC1
inactive: dose: 50.0 mg/kg/injection, schedule: Q04DX002 (ip), vehicle: Klucel (hydroxypropylcellulose) (HPC) 100 % of control | dose: 100.0 mg/kg/injection, schedule: Q04DX002 (ip), vehicle: Klucel (hydroxypropylcellulose) (HPC) 100 % of control | dose: 200.0 mg/kg/injection, schedule: Q04DX002 (ip), vehicle: Klucel (hydroxypropylcellulose) (HPC) 95 % of control

Cc1c[n+]2c3ccccc3c3ccccc3c2s1
inactive: dose: 5.0 mg/kg/injection, schedule: Q01DX009 (ip), vehicle: Klucel (hydroxypropylcellulose) (HPC) 114 % of control | dose: 10.0 mg/kg/injection, schedule: Q01DX001 (ip), vehicle: saline 105 % of control | [6] 118 % of control | dose: 10.0 mg/kg/injection, schedule: Q04DX003 (ip), vehicle: Klucel (hydroxypropylcellulose) (HPC) 94 % of control | dose: 20.0 mg/kg/injection, schedule: Q01DX001 (ip), vehicle: saline 100 % of control | dose: 20.0 mg/kg/injection, schedule: Q01DX009 (ip), vehicle: Klucel (hydroxypropylcellulose) (HPC) 123 % of control | dose: 20.0 mg/kg/injection, schedule: Q04DX003 (ip), vehicle: Klucel (hydroxypropylcellulose) (HPC) 97 % of control | dose: 40.0 mg/kg/injection, schedule: Q01DX001 (ip), vehicle: saline 98 % of control

NS(=O)(=O)c1ccc(NC(=O)Nc2cc(C(F)(F)F)ccc2Cl)cc1
inactive: [7] 95 % of control | [8] 100 % of control | [9] 98 % of control

C=CCC(Cl)(C(=O)OC)C(=O)OC
inactive: dose: 100.0 mg/kg/injection, schedule: Q04DX003 (ip), vehicle: saline with Tween-80 91 % of control | dose: 200.0 mg/kg/injection, schedule: Q04DX003 (ip), vehicle: saline with Tween-80 89 % of control | dose: 400.0 mg/kg/injection, schedule: Q04DX003 (ip), vehicle: saline with Tween-80 94 % of control

Cc1cccc(C(C)(C)C#N)c1
inactive: [10] 92 % of control | [11] 101 % of control | [12] 90 % of control

C[n+]1ccc(/C=C/c2ccc(Cl)c(Cl)c2)c2ccccc21
inactive: dose: 12.5 mg/kg/injection, schedule: Q04DX003 (ip), vehicle: Klucel (hydroxypropylcellulose) (HPC) 98 % of control | dose: 25.0 mg/kg/injection, schedule: Q04DX003 (ip), vehicle: Klucel (hydroxypropylcellulose) (HPC) 100 % of control | dose: 50.0 mg/kg/injection, schedule: Q04DX003 (ip), vehicle: Klucel (hydroxypropylcellulose) (HPC) 96 % of control

CC(C)(C)CC(C)(C)N(CSc1ccc(Br)cc1)CSc1ccc(Br)cc1
inactive: dose: 100.0 mg/kg/injection, schedule: Q01DX001 (ip), vehicle: saline 89 % of control | dose: 200.0 mg/kg/injection, schedule: Q01DX001 (ip), vehicle: saline 90 % of control | dose: 400.0 mg/kg/injection, schedule: Q01DX001 (ip), vehicle: saline 93 % of control

C=CCNC(=S)Nc1cccc(C(F)(F)F)c1
inactive: dose: 50.0 mg/kg/injection, schedule: Q01DX001 (sc), vehicle: carboxymethylcellulose (CMC) 104 % of control | dose: 100.0 mg/kg/injection, schedule: Q01DX001 (sc), vehicle: carboxymethylcellulose (CMC) 101 % of control | dose: 200.0 mg/kg/injection, schedule: Q01DX001 (sc), vehicle: carboxymethylcellulose (CMC) 104 % of control | dose: 400.0 mg/kg/injection, schedule: Q01DX001 (sc), vehicle: carboxymethylcellulose (CMC) 114 % of control

COc1cccc(C2CCN(C)C2)c1 (stereo not drawn)
inactive: dose: 6.25 mg/kg/injection, schedule: Q01DX009 (ip), vehicle: Klucel (hydroxypropylcellulose) (HPC) 110 % of control | dose: 12.5 mg/kg/injection, schedule: Q01DX009 (ip), vehicle: Klucel (hydroxypropylcellulose) (HPC) 108 % of control | dose: 25.0 mg/kg/injection, schedule: Q01DX009 (ip), vehicle: Klucel (hydroxypropylcellulose) (HPC) 103 % of control | [4] 105 % of control | [5] 103 % of control

COC(=O)C(C)NC(=O)C1CSC(C)(C)N1C=O (stereo not drawn)
inactive: [1] 101 % of control | [2] 95 % of control | [3] 95 % of control

COc1cc(C(=O)N2CCN(c3ccccc3)CC2)c2ccccc2n1
inactive: dose: 100.0 mg/kg/injection, schedule: Q01DX001 (ip), vehicle: other 98 % of control | dose: 200.0 mg/kg/injection, schedule: Q01DX001 (ip), vehicle: other 112 % of control | dose: 400.0 mg/kg/injection, schedule: Q01DX001 (ip), vehicle: other 101 % of control

CCOC(=O)CCC(NC(=O)c1cccc(N(C)C=O)c1)C(=O)OCC (stereo not drawn)
inactive: [10] 100 % of control | [11] 92 % of control | [12] 93 % of control

OC(c1ccccc1)C1(O)CC2CCC1C2 (stereo not drawn)
inactive: dose: 6.25 mg/kg/injection, schedule: Q01DX001 (ip), vehicle: saline 96 % of control | dose: 125.0 mg/kg/injection, schedule: Q01DX001 (ip), vehicle: saline 100 % of control | dose: 250.0 mg/kg/injection, schedule: Q01DX001 (ip), vehicle: saline 98 % of control

O=C(Nc1cccc(Cl)c1Cl)Oc1ccc(OCc2ccccc2)cc1
inactive: [7] 87 % of control | [9] 95 % of control

O=C(O)c1cc2ccccc2oc1=O
inactive: [6] 101 % of control | dose: 100.0 mg/kg/injection, schedule: Q01DX001 (ip), vehicle: Klucel (hydroxypropylcellulose) (HPC) 95 % of control | dose: 200.0 mg/kg/injection, schedule: Q01DX001 (ip), vehicle: Klucel (hydroxypropylcellulose) (HPC) 97 % of control | dose: 400.0 mg/kg/injection, schedule: Q01DX001 (ip), vehicle: Klucel (hydroxypropylcellulose) (HPC) 98 % of control

CCOP(=S)(S)OCC
inactive: [1] 97 % of control and 98 % of control | [2] 95 % of control and 93 % of control | [3] 98 % of control

CC(C)c1ccc(/C=C2\N=C(c3ccc([N+](=O)[O-])cc3)OC2=O)cc1
inactive: [7] 100 % of control | [8] 100 % of control | [9] 98 % of control
